# Assay results taken from PMC8448937 (Journal of clinical pharmacy and therapeutics, 2021).
# Like-named read-outs stand apart in the source and are kept apart here.
# Tests used:
# CYP3A4 = conditions: cited from earlier work
# [1] = for CL/F (oral clearance): all women not receiving lopinavir/ritonavir, median; for C0: pre-dose
# [2] = in vivo
# clinical = conditions: female, human, in vivo
# [3] = non-pregnant adults; cited from earlier work
# [4] = previous studies incl. initial analysis of P1026s data; cited from earlier work
# [5] = postpartum, with LPV/r, median (IQR)
# [6] = postpartum, without LPV/r, other regimens, median (IQR)
# [7] = postpartum, without LPV/r, with ATV/r, median (IQR)
# [8] = third trimester, with LPV/r, median (IQR)
# [9] = third trimester, without LPV/r, other regimens, median (IQR)
# [10] = third trimester, without LPV/r, with ATV/r, median (IQR)
structure (smiles),measurement,setting,value
CC(C)(C)NC(=O)[C@@H]1C[C@@H]2CCCC[C@@H]2CN1C[C@@H](O)[C@H](Cc1ccccc1)NC(=O)[C@H](CC(N)=O)NC(=O)c1ccc2ccccc2n1 [saquinavir],CYP3A4 inhibition,CYP3A4,weak inhibition
C[C@H](Cn1cnc2c(N)ncnc21)OCP(=O)(O)O [Tenofovir],concentration at 24 h,"[1]; female, human, in vivo, C24, third trimester, without LPV/r, with ATV/r, 24 hour post-dose, median (IQR)",47 ng/mL
same,half-life,"[1]; female, human, in vivo, t1/2, postpartum, with LPV/r, median (IQR)",12.5 h
same,half-life,"[1]; female, human, in vivo, t1/2, third trimester, with LPV/r, median (IQR)",17.5 h
same,CL/F (oral clearance),[1]; postpartum,48 L/h
same,CL/F,[1]; [5],49 (36 – 75) L/hr
same,Vd/F,[1]; [5],1224 (643 – 1312) L/hr
same,C0,[1]; [5],59.4 (5.0 – 77.8) ng/mL
same,CL/F,[1]; [6],49 (30 – 58) L/hr
same,Vd/F,[1]; [6],757 (514 – 1133) L/hr
same,C0,[1]; [6],74 (50 – 118) ng/mL
same,CL/F,[1]; [7],48 (38 – 63) L/hr
same,Vd/F,[1]; [7],949 (676 – 1246) L/hr
same,C0,[1]; [7],60 (31 – 93) ng/mL
same,CL/F (oral clearance),[1]; third trimester,61 L/h
same,CL/F,[1]; [8],46 (40 – 60) L/hr
same,Vd/F,[1]; [8],1103 (973 – 1312) L/hr
same,C0,[1]; [8],70 (53 – 85) ng/mL
same,CL/F,[1]; [9],57 (47 – 62) L/hr
same,Vd/F,[1]; [9],1159 (1037 – 1709) L/hr
same,t1/2,[1]; [9],15.9 (14.3 – 19.2) hr
same,C0,[1]; [9],54 (42 – 67) ng/mL
same,CL/F,[1]; [10],64 (57 – 85) L/hr
same,Vd/F,[1]; [10],1284 (1120 – 2181) L/hr
same,C0,[1]; [10],48 (36 – 59) ng/mL
same,AUC0–24 (exposure) lower in third trimester compared to postpartum,"[2]; female, human",27%
same,decrease in AUC0–24 during third trimester compared to postpartum,"[2]; female, human",25%
same,increase in CL/F during third trimester compared to postpartum,"[2]; female, human",33%
same,oral clearance higher in third trimester compared to postpartum,"[2]; female, human, po",27%
same,"differences in AUC0–24, third trimester vs postpartum",[2],did not reach statistical significance
same,AUC(0-t),clinical; AUC0–24,2200 ng·h/mL
same,Cmax,clinical; Cmax,257 ng/mL
same,exposure increased with concomitant lopinavir/ritonavir,[3],32%
same,clearance higher in third trimester of pregnancy compared to postpartum,[4],22–39%
same,exposure lower in third trimester of pregnancy compared to postpartum,[4],20–33%
